Literature values in patent publication US20050158411A1, “Methods and apparatus to prevent, treat, and cure the symptoms of nauea caused by chemotherapy treatments of human cancers” (priority 2000, published 2005).
Entries after “also recorded” stand apart in the source; their conditions may differ.

Assays:
[1] = system: fungal infection of the toenails; details: after six months
[2] = system: SARS virus growing in tissue cultures

SMILES | effectiveness for fungal infection of the toenails [1] | effect against the SARS virus [2]
Clc1ccccc1C(c1ccccc1)(c1ccccc1)n1ccnc1 [clotrimazole] | equally effective | 
NC(=O)c1ncn([C@@H]2O[C@H](CO)[C@@H](O)[C@H]2O)n1 [ribavirin] |  | no evidence that the drug has any effect; also recorded: conclusively shown ineffective
